From patent US8426447B2, “Spiro-tricyclic ring compounds as beta-secretase modulators and methods of use” (Amgen Inc., priority 2008, dated 2013)
pIC50: −log10 of the molar value. Several values for one entry are separate records, joined by “and”; a condition that tells them apart may be missing. Identical values can stand only once.

What was measured:
[1] = molecular target: T1, BACE1 (Homo sapiens, UniProt P56817); test: In Vitro Enzymatic BACE FRET (Fluorescence Resonance Energy Transfer) Assay; type: biochemical
T1 sequence (P56817 46-501, species assumed): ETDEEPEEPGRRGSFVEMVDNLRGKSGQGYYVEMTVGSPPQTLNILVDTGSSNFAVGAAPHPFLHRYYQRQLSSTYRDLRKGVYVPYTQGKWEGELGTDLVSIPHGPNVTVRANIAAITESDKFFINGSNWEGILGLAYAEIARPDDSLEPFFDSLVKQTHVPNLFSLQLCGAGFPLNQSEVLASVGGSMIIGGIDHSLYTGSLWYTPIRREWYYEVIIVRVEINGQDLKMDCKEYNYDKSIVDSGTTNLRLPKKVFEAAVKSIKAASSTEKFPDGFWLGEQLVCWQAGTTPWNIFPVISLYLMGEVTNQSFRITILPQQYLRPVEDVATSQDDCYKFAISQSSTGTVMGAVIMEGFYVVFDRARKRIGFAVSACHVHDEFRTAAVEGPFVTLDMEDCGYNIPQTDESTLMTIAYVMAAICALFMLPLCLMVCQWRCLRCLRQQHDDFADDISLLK
How it was run: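 Acetate buffer at pH 4.2 with 10% DMSO and 100 uM genapol hosts the enzymatic reaction, initiated by 50 nM FRET substrate and allowed to proceed one hour. Tris quench to neutral pH precedes the fluorescence measurement.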

[2] = molecular target: T1, BACE1; test: In Vitro BACE Cell-based Assay (HEK cell assay): Aβ40 in conditioned medium of cells stably expressing Amyloid Precursor Protein, sandwich ELISA
How it was run: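 APP-expressing cells were cultured 24 h in DMEM/10% FBS, then treated 24 h with compounds in 10-point dose response (top 100 μM or 10 μM; 0.1% DMSO final). Secreted Aβ40 was quantified by sandwich ELISA (pAb40 capture, biotinylated 6E10 detection, Europium TRF); IC50 from percent inhibition versus concentration.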

[3] = Table IV, class symbols, read-out: BACE1 FRET assay
[4] = Table IV, class symbols, read-out: HEK cell assay
[5] = Table III, IC50's in uM ranges, read-out: BACE1 FRET assay
[6] = Table III, IC50's in uM ranges, read-out: HEK cell assay
[7] = Table 1, read-out: BACE1 FRET assay
[8] = Table 1, Aβ40, 24 h incubation, read-out: HEK cell assay
[9] = Table II, read-out: BACE1 FRET assay
[10] = Table II, Aβ40, 24 h incubation, read-out: HEK cell assay
[11] = in vitro BACE FRET enzyme assay, IC50 class symbols, read-out: BACE1 FRET assay
[12] = HEK cell-based assay, Aβ40 in conditioned medium, IC50 class symbols, read-out: HEK cell assay
[13] = HEK cells, read-out: HEK cell assay

SMILES	pIC50 [1, 3]	pIC50 [2, 4]	pIC50 ([1]; read-out: BACE1 FRET assay)	also measured
CC(C)(C)COc1ccc2c(c1)[C@]1(COC(N)=N1)c1cc(-c3ccc(S(C)(=O)=O)cc3)ccc1O2 [compound 910]	5.30 to 6.00	5.30 to 6.00		
CC(C)(O)Cc1ccc2c(c1)[C@]1(COC(N)=N1)c1cc(-c3cccnc3)ccc1O2 [compound 659]	6.00 to 7.00	6.00 to 7.00		
C[C@@H]1OC(N)=N[C@]12c1cc(OCC(C)(C)C)ccc1Oc1ccc(-c3cncnc3)cc12 [126a, (4R,5S)-2′-(2,2-dimethylpropoxy)-5-methyl-7′-(5-pyrimidinyl)spiro[1,3-oxazole-4,9′-xanthen]-2-amine]				IC50 [1, 5]: 0.1 to 1 µM; IC50 [2, 6]: 1 to 5 µM
NC1=N[C@]2(CO1)c1cc(C3=CCNCC3)ccc1Oc1ccc(-c3cccnc3)cc12 [compound 810]	> 7.00	> 7.00		
CCCOc1ccc2c(c1)[C@]1(COC(N)=N1)c1cc(-c3cncnc3)ccc1O2 [Example 5, (4S)-2′-propoxy-7′-(5-pyrimidinyl)spiro[1,3-oxazole-4,9′-xanthen]-2-amine]				pIC50 [1, 7]: > 7.00; pIC50 [2, 8]: > 7.00
Cc1cc(-c2cc3c(cn2)Oc2ccc(-c4cccnc4F)cc2[C@@]32COC(N)=N2)ccn1 [compound 429]				IC50 ([1]; BACE1 FRET assay (uM)): < 0.1 µM; IC50 ([2]; HEK cell assay (uM), HEK cells): < 0.1 µM
NC1=NC2(CO1)c1cnccc1Oc1ccc(-c3cccnc3)cc12 (stereo not drawn) [compound 648]	5.30 to 6.00	5.30 to 6.00		
CC(C)(C)COc1ccc2c(c1)[C@]1(COC(N)=N1)c1cc(C3CCCCO3)ccc1O2 (stereo partly drawn) [compound 656]	> 7.00	6.00 to 7.00		
CC(C)(C)CC(=O)c1ccc2c(c1)[C@]1(COC(N)=N1)c1cc(-c3cncnc3)ccc1O2 [compound 48, 1-((4S)-2-amino-7′-(5-pyrimidinyl)spiro[1,3-oxazole-4,9′-xanthen]-2′-yl)-3,3-dimethyl-1-butanone]				pIC50 [1, 9]: 6.00 to 7.00 and > 7.00; pIC50 [2, 10]: 6.00 to 7.00 and > 7.00
CC(C)(C)CCc1ccc2c(c1)[C@]1(COC(N)=N1)c1cc(-c3ccc(F)nc3)ccc1O2 [153b]				IC50 [1, 5]: < 0.1 µM; IC50 [2, 6]: 0.1 to 1 µM
COc1cnc2c(c1)[C@]1(COC(N)=N1)c1cc(Br)ccc1O2 [compound 542]	5.30 to 6.00	< 5.30		
CC(C)(C)COc1ccc2c(c1)[C@]1(COC(N)=N1)c1cc(-c3ccc(N4CCOCC4)nc3)ccc1O2 [compound 912]	5.30 to 6.00	< 5.30		
CC(C)(C)/C=C/c1cnc2c(c1)[C@]1(COC(N)=N1)c1cc(-c3cncnc3)ccc1O2 [compound 379]				pIC50 [1, 11]: > 7.00; pIC50 [2, 12]: > 7.00
NC1=N[C@@]2(CO1)c1cc(-c3cccnc3)ccc1Oc1cnc(C(=O)CCCCO)cc12 [compound 612]	> 7.00	6.00 to 7.00		
CCOC1CN(c2ccc3c(c2)[C@]2(COC(N)=N2)c2cc(-c4cccnc4)ccc2O3)C1 [compound 415]				pIC50 [1, 11]: > 7.00; pIC50 [2, 12]: > 7.00
COC(C)(C)COc1ccc2c(c1)[C@@]1(COC(N)=N1)c1cc(-c3ccccc3)cnc1O2 [compound 818]	> 7.00	> 7.00		
COc1ccc(-c2ccc3c(c2)[C@]2(COC(N)=N2)c2cc(-c4cccnc4)ccc2O3)o1 [compound 711]			> 7.00	pIC50 ([2]; read-out: HEK cell assay): 6.00 to 7.00
NC1=N[C@@]2(CO1)c1cc(-c3cccnc3F)ccc1Oc1ncccc12 [compound 570]	> 7.00	6.00 to 7.00		
CC(C)(C)COc1ccc2c(c1)[C@]1(COC(N)=N1)c1cc(-c3ncc[nH]3)ccc1O2 [compound 979]			6.00 to 7.00	pIC50 ([2]; read-out: HEK cell assay): 5.30 to 6.00
CCCOc1cc2c(cc1F)Oc1ccc(-c3cccnc3)cc1[C@]21COC(N)=N1 [compound 939]			6.00 to 7.00	pIC50 ([2]; read-out: HEK cell assay): 6.00 to 7.00
N#Cc1ccccc1-c1ccc2c(c1)[C@]1(COC(N)=N1)c1cc(-c3cccnc3)ccc1O2 [compound 962]			> 7.00	pIC50 ([2]; read-out: HEK cell assay): 6.00 to 7.00
CC(C)(C)C#Cc1ccc2c(c1)[C@]1(COC(N)=N1)c1cc(-c3cccnc3)cnc1O2 [compound 896]	6.00 to 7.00	5.30 to 6.00		
NC1=N[C@]2(CO1)c1cc(/C=C/C(=O)O)ccc1Oc1ccc(-c3cccnc3)cc12 [compound 949]			> 7.00	pIC50 ([2]; read-out: HEK cell assay): < 5.30

SMILES	pIC50 [1, 3]	pIC50 [2, 4]	pIC50 ([1]; read-out: BACE1 FRET assay)	also measured
NC1=N[C@@]2(CO1)c1cc(-c3cccnc3)ccc1Oc1ccc(N3CCOC4(CC4)C3)cc12 [compound 419]			> 7.00	pIC50 [2, 13]: > 7.00
Cc1cscc1-c1ccc2c(c1)[C@@]1(COC(N)=N1)c1cc(OCC(C)(C)C)ccc1O2 [compound 738]			6.00 to 7.00	pIC50 ([2]; read-out: HEK cell assay): 5.30 to 6.00
COc1ccc2c(c1)[C@]1(COC(N)=N1)c1cc(NC(=O)C3CCCO3)ccc1O2 (stereo partly drawn) [compound 614]	6.00 to 7.00	6.00 to 7.00		
NC1=N[C@@]2(CO1)c1cc(-c3ccccc3F)ccc1Oc1ncc(N3CCOCC3)cc12 [compound 460]			> 7.00	pIC50 [2, 13]: 6.00 to 7.00
COc1cncc(-c2ccc3c(c2)[C@@]2(COC(N)=N2)c2cc(C#CC(C)(C)OC)cnc2O3)c1 [compound 602]	> 7.00	> 7.00		
Cc1cc(-c2ccc3c(c2)[C@]2(COC(N)=N2)c2cc(-c4ccc(F)nc4)ccc2O3)on1 [compound 565]	> 7.00	6.00 to 7.00		
COc1ccc2c(c1)[C@]1(COC(N)=N1)c1cc(NC(=O)COc3ccccc3)ccc1O2 [compound 374]				pIC50 [1, 11]: 6.00 to 7.00; pIC50 [2, 12]: 5.30 to 6.00
CC(C)(C)C#Cc1ccc2c(c1)C1(COC(N)=N1)c1cc(C#CC(C)(C)C)ccc1O2 [compound 930]			6.00 to 7.00	pIC50 ([2]; read-out: HEK cell assay): 5.30 to 6.00
NC1=N[C@]2(CO1)c1cc(CCCCO)ccc1Oc1ccc(-c3cccnc3)cc12 [compound 194]				IC50 [1, 5]: < 0.1 µM; IC50 [2, 6]: < 0.1 µM
CC(C)(C)CCOc1ccc2c(c1)[C@]1(COC(N)=N1)c1cc(-c3cncnc3)ccc1O2 [Example 70, (4S)-2′-(3,3-dimethylbutoxy)-7′-(5-pyrimidinyl)spiro[1,3-oxazole-4,9′-xanthen]-2-amine]				pIC50 [1, 9]: > 7.00; pIC50 [2, 10]: 6.00 to 7.00
CC(C)(C)COc1ccc2c(c1)[C@]1(COC(N)=N1)c1cc(-c3csc(-n4ccnc4)n3)ccc1O2 [compound 214]				IC50 [1, 5]: 0.1 to 1 µM; IC50 [2, 6]: 1 to 5 µM
CC(C)(F)COc1cnc2c(c1)[C@]1(COC(N)=N1)c1cc(-c3ccc(F)nc3)ccc1O2 [compound 451]			> 7.00	pIC50 [2, 13]: > 7.00
CC(C)(C)COc1ccc2c(c1)[C@]1(COC(N)=N1)c1cc(C3=CCCC3)ccc1O2 [compound 731]			6.00 to 7.00	pIC50 ([2]; read-out: HEK cell assay): 5.30 to 6.00
CC(=O)COc1ccc2c(c1)[C@]1(COC(N)=N1)c1cc(-c3cccnc3)ccc1O2 [compound 923]	> 7.00	> 7.00		
CC(C)(C)COc1ccc2c(c1)[C@]1(COC(N)=N1)c1cc(-c3ccc(C#N)cc3)ccc1O2 [compound 972]			6.00 to 7.00	pIC50 ([2]; read-out: HEK cell assay): < 5.30
COc1ccc2c(c1)C1(COC(N)=N1)c1cc(-c3ccccc3Cl)ccc1O2 (stereo not drawn) [Example 28, 2′-(2-chlorophenyl)-7′-methoxyspiro[1,3-oxazole-4,9′-xanthen]-2-amine]				pIC50 [1, 7]: < 5.30; pIC50 [2, 8]: 5.30 to 6.00
NC1=N[C@@]2(CO1)c1cc(-c3cccnc3)ccc1Oc1cnc(C3=CCCCO3)cc12 [compound 729]			> 7.00	pIC50 ([2]; read-out: HEK cell assay): > 7.00
COc1ncc(-c2ccc3c(c2)[C@]2(COC(N)=N2)c2cc(OCC(C)(C)C)ccc2O3)cn1 [compound 188]				IC50 [1, 5]: 0.1 to 1 µM; IC50 [2, 6]: 1 to 5 µM
COc1ccc2c(c1)[C@]1(COC(N)=N1)c1cc(NC(=O)[C@@H](C)OC)ccc1O2 [compound 536]	6.00 to 7.00	6.00 to 7.00		
N#CCOc1ccc2c(c1)[C@]1(COC(N)=N1)c1cc(-c3cccnc3)ccc1O2 [compound 981]			6.00 to 7.00	pIC50 ([2]; read-out: HEK cell assay): 5.30 to 6.00
NC1=N[C@@]2(CO1)c1cc(-c3cccnc3F)ccc1Oc1cnc(C3=CCOCC3)cc12 [Example 294, (S)-3-(3,6-dihydro-2H-pyran-4-yl)-7-(2-fluoropyridin-3-yl)-5′H-spiro[chromeno[2,3-c]pyridine-5,4′-oxazol]-2′-amine]				pIC50 ([1]; BACE1 FRET assay, Table IV, class symbols): > 7.00; pIC50 ([2]; HEK cell assay, Table IV, class symbols): > 7.00
NC1=NC2(CO1)c1cc(-c3ccccc3)ccc1Oc1ccc(-c3ccccc3)cc12 [compound 532]	> 7.00	6.00 to 7.00		
